The values that follow come from patent USRE49873E1, “APP specific bace inhibitors (ASBIs) and uses thereof” (BUCK INSTITUTE FOR RESEARCH ON AGING, priority 2012, dated 2024).

Test [1] concerns the target acetylcholine esterase (AChE) (Homo sapiens, UniProt P22303). Particulars: Guo et al. (2010); cited from earlier work.
The subject of test [2] is BACE1 cleavage of neuregulin1 in HEK293 cells. Description: Neuregulin1 shedding assay (SEAP-NRG1-β1). Particulars: 10 μM, HEK293 cells co-expressing BACE1. The class given is cell-based, human. The protocol:
Chinese Hamster Ovary (CHO) cells stably over-expressing human APP were treated with 10 μM Galangin or DMSO for 24 hr, then the cell lysates and conditioned media were collected. The levels of full length APP and β-CTF in the cell lysates and the levels of sAPPα in the conditioned media were detected by western blot. […] BACE1-dependent cleavage of SEAP-NRG1-β1 was evaluated by SEAP assays with supernatants of control human embryonic kidney 293 (HEK293) cells (SEAP-NRG1-β1) or HEK293 cells co-expressing BACE1 (SEAP-NRG1-β1+BACE1), treated with DMSO or Galangin (10 μM). An increase in shedding of the SEAP-NRG1-b1 fusion protein was measured upon BACE1 co-expression. Shedding in co-expressing cells was not suppressed by Galangin. Error bars indicate SEM. (N.S., p>0.05; n=4, student t test).
A cDNA construct encoding a human placental secreted alkaline phosphatase (SEAP)-NRG1 (pAPtag5-NRG1-β1) fusion protein was transfected in HEK293 cells in a 6-well format with or without full-length wild-type BACE1 using Lipofectamine 2000 (Invitrogen) as described previously (Vassar et al. (1999) Science, 286: 735-741). After transfection the medium was replaced with DMEM containing 10% heat-inactivated Fetal Bovine Serum and incubated for 24 hr. SEAP activity was measured in the conditioned medium. […] The absorbance was read at 405 nm. […]

The target in test [3] is T1, BACE cleavage of the MBP-C125 APP substrate (Homo sapiens, UniProt P05067).
T1 construct: purchased Sigma (methods); R&D (HTS description) B9059; 931-AS-050
As to the kind of experiment: ASBI assay a): BACE cleavage of MBP-C125 substrate (C99 by AlphaLISA). The format is biochemical. Here is the method:
As illustrated in the Examples, in one embodiment, an MBP-C125 APP695 wt fusion protein can be used as one of the substrates. The second substrate can be the commercially available P5-P5′ fluorescence substrate. Each of these substrates is incubated with recombinant BACE (R&D (cat#931-AS-050) in, for example, a 96 well plate format. For the MBP-C125 substrate the C-99 product from the BACE cleavage can be measured using an AlphaLisa assay as a readout. For the P5-5′ substrate the […] upon BACE cleavage can be used as the readout. An ASBI would inhibit the BACE cleavage of the MBP-C125 substrate while not being inhibitory of the fluorescence substrate.
A protein construct of Maltose-Binding-Protein carrying the 125 C-terminal residues of APP (1 uL of 1 mM in water) was incubated with a flavonoid (100 uM) for 15 minutes. The mix was then submitted to cleavage by BACE (Sigma #B9059, 5 μl of 3 unit/ml in BACE buffer) for 30 minutes. After 0, 10, 20 and 30 minutes, 2 uL the reaction mixture were frozen and the different time points were quantified simultaneously for the amount of APP-C99 created. The quantification was done by using a Perkin Elmer ALPHALisa Amyloid Amyloid Beta kit (AL275C) modified by replacing the anti-Abeta acceptor beads (AL275AC) with anti-APP acceptor beads (AL275AC) and making the antibody mix with 2×ALPHALisa buffer. […]
(In general: Bead proximity is the source of the signal in Alpha formats.)

A further test concerns autophagy. The conditions noted are these: Wen et al. (2012); cited from earlier work.
The target in the next test is MBP-C125 APP (Homo sapiens, UniProt P05067). As to the kind of experiment: Nitrocellulose filter ligand-binding (ligand blot) assay. The conditions noted are these: qualitative; UV and MALDI detection. The protocol:
To explore the interaction of ASBIs with APP a ligand blot technique was used, where MBP-C125 APP was dot blotted on a nitrocellulose blot and binding to the protein was detected upon treatment with the bioflavonoids. A nitrocellulose filter-binding assay with bovine serum albumin (BSA) was used as a control. The binding of bioflavonoids was determined using both UV and MALDI mass spectrometric analysis.

T1 sequence (P05067 646-770 limits assumed): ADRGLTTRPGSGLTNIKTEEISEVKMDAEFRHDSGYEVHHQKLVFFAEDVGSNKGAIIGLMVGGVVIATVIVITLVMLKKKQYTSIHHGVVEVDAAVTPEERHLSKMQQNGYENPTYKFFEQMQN
MBP-C125 APP, sequence (P05067 646-770 limits assumed): as above
acetylcholine esterase (AChE), sequence (P22303 32-614): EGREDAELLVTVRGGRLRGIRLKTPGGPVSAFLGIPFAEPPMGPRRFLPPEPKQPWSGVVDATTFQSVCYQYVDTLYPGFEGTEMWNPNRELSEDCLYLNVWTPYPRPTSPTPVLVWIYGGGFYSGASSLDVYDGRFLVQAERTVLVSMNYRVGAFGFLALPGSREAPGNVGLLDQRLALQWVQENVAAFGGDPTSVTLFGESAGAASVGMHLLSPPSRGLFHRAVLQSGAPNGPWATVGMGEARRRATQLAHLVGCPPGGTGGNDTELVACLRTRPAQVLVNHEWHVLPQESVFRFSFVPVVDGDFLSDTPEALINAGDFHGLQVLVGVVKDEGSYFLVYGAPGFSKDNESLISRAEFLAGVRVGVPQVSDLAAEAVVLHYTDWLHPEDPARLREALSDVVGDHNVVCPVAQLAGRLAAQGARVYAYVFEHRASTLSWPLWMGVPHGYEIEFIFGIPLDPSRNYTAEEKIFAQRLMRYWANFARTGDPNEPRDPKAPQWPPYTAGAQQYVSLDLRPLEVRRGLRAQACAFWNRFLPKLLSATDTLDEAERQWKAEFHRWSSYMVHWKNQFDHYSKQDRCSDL

As to `O=c1c(O)c(-c2ccccc2)oc2cc(O)cc(O)c12` [Galangin], in test [1], the “inhibitor of acetylcholine esterase (AChE)” value is “inhibitor of acetylcholine esterase (AChE)”. The “BACE1-dependent shedding of SEAP-NRG1-β1” value in test [2] is “does not inhibit BACE1 cleavage of neuregulin1”. In addition, the “inhibition of BACE cleavage of the MBP-C125 substrate” value in test [3] (HTS at 10 uM, flavonoid panel at 100 uM) is reported as “inhibiting the cleavage of the MBP substrate by BACE”. The “dose at which effective as an ASBI” value in test [3] (in the ASBI assays) was 50 µM. The induction of autophagy result in the test with autophagy was “induce autophagy”. On MBP-C125 APP, the “binding to the APP substrate” value is on record as “shows binding to the APP substrate”.
